How the values were obtained:
[1] = system: elderly subjects with TRD; type: in vivo, human; details: each dosing day
Excerpt: The Modified Observer's Assessment of Alertness/Sedation (MOAA/S) was used to measure treatment-emergent sedation with correlation to levels of sedation defined by the American Society of Anesthesiologists (ASA) continuum. The MOAA/S scores range from 0 (No response to painful stimulus; corresponds to ASA continuum for general anesthesia) to 5 (Readily responds to name spoken in normal tone [awake]; corresponds to ASA continuum for minimal sedation). The proportion of subjects with sedation was <4% for the esketamine group for each dosing day.

subjects with TRD = details: IND or OP/MA phases; among the 76 subjects
Excerpt: The efficacy and safety analyses are based on the full (IND) analysis set and the full (OP/MA) analysis set. The full (IND) analysis set is defined as all subjects who receive at least 1 dose of intranasal study medication or 1 dose of oral antidepressant in the open-label IND phase (for direct-entry and transferred-entry non-responder subjects). The full (OP/MA) analysis is defined as all subjects who receive at least 1 dose of intranasal study medication or 1 dose of oral antidepressant in the OP/MA phase. Safety variables include cognition function over time, treatment-emergent adverse events (TEAEs), including TEAEs of special interest, vital signs over time, Clinician-Administered Dissociative Symptom Scale (CADDS) over time, and Modified Observer's Assessment of Alertness/Sedation (MOAA/S) score≤3.

Compound: CN[C@]1(c2ccccc2Cl)CCCCC1=O [esketamine, (S)-2-(2-chlorophenyl)-2-(methylamino)cyclohexanone]
- Proportion of subjects with sedation (post dose MOAA/S score of ≤3) [1]: < 4%
- Subjects with an AE leading to discontinuation of intranasal esketamine considered related to esketamine (subjects with TRD): 51 subjects
